Patent US11559504B2, “Ceramide nanoliposomes, compositions and methods of using for immunotherapy” (THE PENN STATE RESEARCH FOUNDATION, priority 2017, dated 2023)

Key:
[1] = test system: G-BMMs and M-BMMs; test: ROS in bone marrow-derived macrophages in vitro, ROS-Glo H2O2 luminescent assay; type: cell-based, C57BL/6 mice; conditions: ceramides of carbon-chain lengths 6 to 22, overnight incubation
Protocol: Size-matched TBMs were randomly assigned to one of three groups: vehicle, LipC6, or no injection. Two weeks after injection, splenic leukocytes and TILs were prepared from the spleen and the perfused tumors. The cells were incubated for 45 mins at 37° C., then washed three times with media, with the remaining adherent cells being >90% CD11b positive (macrophages). Intracellular ROS were measured with Glo™ H2O2 assay. Briefly, H2O2 substrate was added to each well followed by addition of ROS-Glo™ detection solution. After incubation for 20 minutes at RT, relative luminescence was measured to assess ROS level in TAMs (A) and splenic macrophages (B). Similarly, bone marrow-derived macrophages (BMMs) were prepared in vitro by stimulating bone marrow cells from wild type C57BL/6 mice with GMCSF (G-BMMs) and MCSF (M-BMMs) for 6 days.
G-BMMs (A) and M-BMMs (B) were prepared in vitro by stimulating bone marrow cells from wild type C57BL/6 mice with GMCSF and MCSF for 6 days. After incubation with the ceramides of different carbon-chain lengths varying from 6 to 22 overnight, the relative ROS level in G-BMMs (C) and M-BMMs (D) was measured with a luminescence assay in accordance with the manufacturer's instruction. n=3; error bars represent±SD. * p<0.05.
Mice. […] Small tumors can be detected by MRI two months after hepatocyte inoculation. […]

[2] = test system: GM-BMMs; test: M1 cytokine mRNA in GM-BMMs with LipC6, NAC or both, RT-PCR; type: cell-based, C57BL/6 mice; conditions: 50 μM NAC, 24 hours
Protocol: GM-BMMs were prepared in vitro by stimulating bone marrow derived monocytes from wild type C57BL/6 mice with 50 ng/mL GMCSF for 6 days. GM-BMMs were incubated for 24 hours with 25 μM vehicle, 25 μM LipC6, 50 μM NAC or LipC6 plus NAC. Total RNA was extracted and subjected to RT-PCR to quantitate M1 cytokines including iNOS (B), IL-12 (C), IFN-γ (D) and TNF-α (E). n=3, *=p<0.05 and **=p<0.001 using Student's t-test.
Total RNA extraction and real-time PCR. Total RNAs were extracted using Trizol reagent (Invitrogen, Carlsbad, Calif.) according to the manufacturer's instructions. 2 μg of total RNAs were used for cDNA synthesis with High Capacity cDNA Reverse Transcription Kits (Applied Biosystems, CA). Each PCR was performed in a 20 μl reaction mixture containing SYBR Green I (Roche, Basel, Switzerland). Real-time PCR was performed with CFX96 Real-Time PCR Detection System (Bio-Rad, CA). Reactions were run in triplicate in three independent experiments. Expression data were normalized to the geometric mean of housekeeping gene 18S rRNA to control the variability in expression levels and were analyzed using the 2^ΔΔCT method.
To further study if ROS signaling is required for LipC6-mediated modulation of macrophages, we compared the function of LipC6 and the ROS specific inhibitor N-acetyl-L-cysteine (NAC) in modulating M1 cytokine production in GMCSF-induced macrophages.

SMILES	suppressive effect on ROS production in BMMs [1]	M1 cytokine production profile compared with LipC6 [2]
CCCCCCCCCCCCC/C=C/[C@@H](O)[C@H](CO)NC(=O)CCCCCCC [C8-ceramide]	suppressive effect	–
CCCCCCCCCCCCC/C=C/[C@@H](O)[C@H](CO)NC(=O)CCCCC [C6-ceramide, N-hexanoyl-D-erythro-sphinogosine]	suppressive effect	–
CC(=O)N[C@@H](CS)C(=O)O [NAC, N-acetyl-L-cysteine]	–	similar
